Residues, ends and D or L forms follow the SMILES beside them.

The subject of data set [1] is aggregated platelets induced by ADP. Briefly: Platelet disaggregation rate of blood samples with ADP-induced platelet aggregation (hematology analyzer, PLT_O).
Method: The compounds in Table 1 above were respectively added to a diluent used for a hematology analyzer to prepare blood sample diluents. […] Each of the compounds in Table 1 (at a final concentration 0.01 mol/L) was added to the diluent separately, pH was adjusted to 14, and the osmotic pressure was adjusted to 200 mOsm/L to obtain the treatment solution.
The venous blood of a healthy subject was collected into blood anticoagulant tubes for later use. Two aliquot blood samples (1 ml/sample) were taken. The above-mentioned diluent was added to one of the samples, the resulting solution was mixed evenly, and then the platelet count was detected in a hematology analyzer (Mindray BC-6000Plus) and recorded as: PLT_O (unaggregated). The platelet aggregation inducer ADP (at a final concentration of 0.01 mmol/L) was added to the other sample, and the resulting solution was mixed evenly. Platelets were aggregated 5 min later, at this time the above-mentioned diluent was added, and then the blood containing the aggregated platelets was detected by the hematology analyzer to obtain the platelet count, which was recorded as: PLT_O (aggregated). Another 1 ml of blood sample was taken, the platelet aggregation inducer ADP (at a final concentration of 0.01 mmol/L) was added, and the resulting solution was mixed evenly. The above-mentioned treatment solution was added 5 min later, the resulting solution was mixed evenly, and then the platelet count of the treated blood was detected by the hematology analyzer and was recorded as: PLT_O (disaggregated).
A short description of data set [2]: pKa of the amino group of the compound. From the text:
For the compound having a plurality of amino groups/imino groups, the pKa of amino group described herein refers to the first dissociation constant, that is, pKa of amino group or imino group which firstly dissociates hydrogen ion.

The mark [3] stands for this setting: Table 3, method of Example 1 (0.01 mol/L, pH 14, ADP 0.01 mmol/L).
The mark [4] stands for this setting: Table 4, pH 8.18, method of Example 1.
Where [5] appears, read: Table 4, pH 9.96, method of Example 1.
Setting [6] is: Table 5, pH 9.5, method of Example 1.
Where [7] appears, read: Table 2, compound 0.01 mol/L, pH 14, ADP 0.01 mmol/L.
[8] abbreviates: Table 4, pH 9.14, method of Example 1.
Where [9] appears, read: FIG. 13, 10 mmol/L, pH 9.5, ADP 0.01 mmol/L.
Where [10] appears, read: Table 4, pH 5.75, method of Example 1.
[11] abbreviates: Table 4, pH 10.64, method of Example 1.
Where [12] appears, read: Table 4, pH 10.8, method of Example 1.

One may read the pKa as the pH at which an ionisable group is half protonated. A lower pKa goes with a group that gives up its proton readily. Regarding 1,3-diaminopropane, the Platelet disaggregation rate in data set [1] (setting [3]) is reported as 91.14%. In data set [2] (Table 3), this molecule showed a pKa of 10.4.
Regarding 2-aminoacetamide, the Platelet disaggregation rate in data set [1] (setting [4]) came out at 64.57%. This molecule also registered a pKa in data set [2] (Table 4) of 7.93.
The molecule 3-amino-1-propanol registered a Platelet disaggregation rate in data set [1] (setting [5]) of 81.43%.
In data set [1] (setting [3]), `Nc1cc(N)cc(N)c1` [1,3,5-triaminobenzene] showed a Platelet disaggregation rate of 72.44%. This molecule had a pKa in data set [2] (pKa, Table 3) of 5.5.
`NCC(O)CN` [1,3-diamino-2-propanol]: in data set [1] (setting [3]), the Platelet disaggregation rate was found to be 93.78%. This molecule also yielded a pKa in data set [2] (Table 3) of 9.68.
In data set [1] (setting [3]), `Nc1ccc(N)c(S(=O)(=O)O)c1` [2,5-diaminobenzene-sulfonic acid] had a Platelet disaggregation rate of 62.44%. Besides, the pKa in data set [2] (pKa, Table 3) was found to be 5.17.
With `NCC(CN)CN` [2-(aminomethyl)-propane-1,3-diamine], the Platelet disaggregation rate in data set [1] (setting [3]) was 96.43%. This molecule gave a disaggregation rate in data set [1] (setting [6]) of 97.46%. Moreover, the pKa in data set [2] (pKa, Table 3) came to 9.59; in data set [2] (pKa, Table 5) it was 9.6.
With `CNC(CC(N)=O)C(N)=O` (stereo not drawn) [2-(methylamino) succinamide], the Platelet disaggregation rate in data set [1] (setting [3]) is reported as 74.43%. Also, the pKa in data set [2] (pKa, Table 3) came to 7.02.
In data set [1] (setting [7]), `CNCCO` [2-(methylamino)ethanol] returned a Platelet disaggregation rate of 82.49%%.
`CC(N)C(N)=O` (stereo not drawn) [2-aminopropanamide] came in with a Platelet disaggregation rate in data set [1] (setting [4]) of 62.65%. Further, in data set [2] (pKa, Table 4), the pKa came out at 8.18.
`CNCc1ccc(O)cc1` [4-[(methylamino)methyl]phenol] registered a Platelet disaggregation rate in data set [1] (setting [7]) of 59.43%.
As to `NCCCCO` [4-amino-1-butanol], the Platelet disaggregation rate in data set [1] (setting [5]) came to 74.45%. In data set [2] (pKa, Table 4), this molecule had a pKa of 10.3.
Consider `NCCCC(=O)O` [4-aminobutyric acid], for which the pKa in data set [2] (pKa, Table 4) came to 10.4.
On to `Nc1ccc(O)cc1` [4-aminophenol], for which the Platelet disaggregation rate is on record as 67.73% in data set [1] (setting [7]) and 67.37% in data set [1] (setting [8]). This molecule displayed a pKa in data set [2] of 5.5.
`CCCCc1ccc(O)cc1` [4-butylphenol, reference compound] came in with a Platelet disaggregation rate in data set [1] (setting [7]) of 9.43%.
As for `NCc1ccc(O)cc1` [4-hydroxybenzylamine], the Platelet disaggregation rate in data set [1] (setting [8]) amounted to 51.43%. Further, the pKa in data set [2] (pKa, Table 4) was 9.14.
The molecule `N.N.O=P(O)(O)O` [(NH4)2HPO4, ammonium hydrogen phosphate] displayed a disaggregation effect in data set [1] (setting [9]) of 99.25%.
The same measure, in the same setting: the value for `N.N.N.O=P(O)(O)O` [(NH4)3PO4, ammonium phosphate] was 94.87%; that for `Br.N` [NH4Br, ammonium bromide] was 93.48%; that for `N.N.O=C(O)C(=O)O` [NH4C2O4, ammonium oxalate] was 87.67%.
`N.O=P(O)(O)O` [NH4H2PO4, ammonium dihydrogen phosphate] yielded a disaggregation effect in data set [1] (setting [9]) of 86.24%.
For the molecule `I.N` [NH4I, ammonium iodide], the disaggregation effect in data set [1] (setting [9]) worked out at 92.75%.
For `N.O` [NH4OH, ammonia water], the disaggregation effect in data set [1] (setting [9]) amounted to 83.05%.
The same measure, in the same setting: with `N.N#CS` [NH4SCN, ammonium thiocyanate] the figure was 85.78%; with `[Cl-].[Na+]` [NaCl, reference compound], 18.90%.
In data set [1] (setting [7]), `CC=O` [acetaldehyde, reference compound] returned a Platelet disaggregation rate of 16.54%.
For the molecule `CC(N)=O` [acetamide], the Platelet disaggregation rate came out at 64.57% in data set [1] (setting [7]) and 44.44% in data set [1] (setting [3]).
In data set [1] (setting [7]), `CC(=O)O` [acetate, reference compound] came in with a Platelet disaggregation rate of 11.75%.
`CC(=O)CC(C)=O` [acetylacetone, reference compound] came in with a Platelet disaggregation rate in data set [1] (setting [7]) of 8.45%.
For the molecule `NCS(=O)(=O)O` [aminomethanesulfonic acid], the Platelet disaggregation rate in data set [1] (setting [10]) came to 52.44%. This molecule also registered a pKa in data set [2] (pKa, Table 4) of 5.75.
Turning to `Cl.N` [ammonium chloride], the disaggregation effect is 95.70% in data set [1] (setting [9]) and 66.27% in data set [1] (FIG. 14, 50 mmol/L (total for combination, equal parts), ADP 0.1 mmol/L). Moreover, the disaggregation rate turned out to be 18.62% in data set [1] (Table 6, 0.01 mol/L, pH 4.0); 31.70% in data set [1] (Table 6, 0.01 mol/L, pH 5.5); 59.61% in data set [1] (Table 6, 0.01 mol/L, pH 6.5); 94.05% in data set [1] (Table 6, 0.01 mol/L, pH 7.5); 94.62% in data set [1] (Table 6, 0.01 mol/L, pH 8.5); 95.70% in data set [1] (Table 6, 0.01 mol/L, pH 9.5). In data set [1] (Table 6, 0.01 mol/L, pH 11.0), the disaggregation rate is listed as 97.72%.
Consider `Nc1ccccc1` [aniline], for which, in data set [1] (setting [3]), the Platelet disaggregation rate is given as 56.26%.
The molecule `N=C(N)NCCC[C@H](N)C(=O)O` [arginine] showed a disaggregation rate in data set [1] (setting [6]) of 62.64%. Moreover, the pKa in data set [2] (pKa, Table 5) was 9.
Molecule `O=S(=O)(O)c1ccccc1` [benzenesulfonic acid, reference compound] had a Platelet disaggregation rate in data set [1] (setting [7]) of 13.77%.
As to `N=C(N)NC(=N)N` [biguanide], the Platelet disaggregation rate in data set [1] (setting [3]) is recorded as 97.54%. The molecule also returned a pKa in data set [2] (pKa, Table 3) of 13.2.
Turning to `CCCCN` [butylamine], the figures for the Platelet disaggregation rate in data set [1] (setting [3]) and in data set [1] (setting [11]) were 87.53% and 84.34%, respectively.
As for `CCCC(=O)O` [butyric acid, reference compound], the Platelet disaggregation rate in data set [1] (setting [7]) was determined as 11.45%.
On the same count and under the same terms, with `CC(=O)NC(C)=O` [diacetamide] the figure was 75.43%; with `CCS(=O)(=O)O` [ethanesulfonic acid, reference compound], 16.54%.
In data set [1] (setting [7]), `CCO` [ethanol, reference compound] came in with a Platelet disaggregation rate of 14.46%.
As for `NCCO` [ethanolamine], the Platelet disaggregation rate in data set [1] (setting [7]) stood at 91.45%; in data set [1] (setting [3]) it was 86.45%; in data set [1] (setting [5]) it was 88.45%.
With `C=O` [formaldehyde, reference compound], in data set [1] (setting [7]), the Platelet disaggregation rate is given as 13.85%.
In the case of `N[C@@H](CCC(=O)O)C(=O)O` [glutamic acid], the disaggregation rate in data set [1] (setting [6]) turned out to be 63.24%. In addition, the pKa in data set [2] and in data set [2] (Table 5) was 9.6 each time.
In turn, `NC(=O)CCC(N)C(=O)O` (stereo not drawn) [glutamine] yielded a Platelet disaggregation rate in data set [1] (setting [4]) of 59.25%.
Molecule `NCC(=O)NCC(=O)O` [gly-gly] (H-Gly-Gly-OH) had a disaggregation rate in data set [1] (setting [6]) of 57.29%. This molecule had a pKa in data set [2] of 9.6.
In the case of `NCC(=O)O` [glycine], the Platelet disaggregation rate in data set [1] (setting [7]) and in data set [1] (setting [3]) was 65.47% throughout. Further, in data set [1] (setting [6]), the disaggregation rate stood at 70.47%.
With `N=C(N)N` [guanidine], the Platelet disaggregation rate in data set [1] (setting [7]) and in data set [1] (setting [3]) was 84.35% in each case. Besides, the pKa in data set [2] is reported as 13.17.
Turning to `NCCCCC(N)C(=O)NC(CCCCN)C(=O)O` (stereo not drawn) [lys-lys], the Platelet disaggregation rate in data set [1] (setting [3]) stood at 85.75%. Further, in data set [2] (pKa, Table 3), the pKa worked out at 11.
In the case of `NCCCCC(N)C(=O)O` (stereo not drawn) [lysine], the Platelet disaggregation rate in data set [1] (setting [3]) is given as 70.49%. For the same molecule, the pKa in data set [2] (pKa, Example 4) was 10.7; in data set [2] (pKa, Table 3) it was 10.8.
For `Nc1cccc(N)c1` [m-phenylenediamine], the Platelet disaggregation rate in data set [1] (setting [3]) is given as 66.83%. In data set [2] (pKa), this molecule came in with a pKa of 4.67.
For the molecule `CCCN` [n-propylamine], in data set [1] (setting [11]), the Platelet disaggregation rate is listed as 85.53%.
The molecule `Oc1ccccc1` [phenol, reference compound] displayed a Platelet disaggregation rate in data set [1] (setting [7]) of 8.44%.
With `OCN(CO)C(CO)(CO)CO` [reference compound], the disaggregation rate in data set [1] (setting [6]) is given as 24.0%. The molecule also came in with a pKa in data set [2] of 6.5.
Molecule `CNCC(=O)O` [sarcosine] yielded a Platelet disaggregation rate in data set [1] (setting [7]) of 64.75%.
On to `NS(=O)(=O)O` [sulfamic acid], for which the Platelet disaggregation rate in data set [1] (setting [10]) came out at 64.54%. Moreover, the pKa in data set [2] is 1.19.
`Nc1ccc(S(=O)(=O)O)cc1` [sulfanilic acid]: the Platelet disaggregation rate in data set [1] (setting [7]) and in data set [1] (setting [3]) was 55.15% in each case. Further, the pKa in data set [2] (pKa, Example 4) was determined as 10.1; in data set [2] (pKa, Table 3) it was 3.32.
In data set [1] (setting [10]), `NCCS(=O)(=O)O` [taurine] yielded a Platelet disaggregation rate of 46.25%. Further, the pKa in data set [2] (pKa, Table 4) was 9.12.
For the molecule `CC(=O)O.NC(CO)(CO)CO` [tris(hydroxymethyl)aminomethane acetate], the disaggregation rate in data set [1] (setting [6]) is 75.23%.
Take `NCCc1ccc(O)cc1` [tyramine]: the Platelet disaggregation rate in data set [1] (setting [8]) is reported as 48.44%. The molecule further had a pKa in data set [2] (pKa, Table 4) of 10.6.
As for `N=C(N)NCC(=O)O` [{[amino(imino)methyl]amino}-acetic acid], the Platelet disaggregation rate in data set [1] (setting [12]) came to 94.02%. Further, the pKa in data set [2] (pKa, Table 4) stood at 10.8.
aminoguanidine registered a Platelet disaggregation rate in data set [1] (setting [3]) of 92.35%. The molecule further registered a pKa in data set [2] (Table 3) of 11.04.
For the molecule butanol [reference compound], in data set [1] (setting [7]), the Platelet disaggregation rate came out at 13.14%.
With ethylamine, the Platelet disaggregation rate in data set [1] (setting [11]) was 83.32%. In data set [2] (Table 4), this molecule displayed a pKa of 10.67.
Molecule methyl guanidine gave a Platelet disaggregation rate in data set [1] (setting [12]) of 86.36%. Further, the pKa in data set [2] was 13.2.
The molecule tris(hydroxymethyl)aminomethane showed a disaggregation rate in data set [1] (setting [6]) of 97.32%. In data set [2] (Table 5), this molecule gave a pKa of 8.1.

These data come from patent US20230152304A1 (SHENZHEN MINDRAY BIO-MEDICAL ELECTRONICS CO., LTD., priority 2020, published 2023).
